Settings in all cases: Compound concentration 10 µM
Test [1] has as its target T1, Alpha-2A adrenergic receptor (Homo sapiens) (UniProt P08913).
T1 sequence (whole entry): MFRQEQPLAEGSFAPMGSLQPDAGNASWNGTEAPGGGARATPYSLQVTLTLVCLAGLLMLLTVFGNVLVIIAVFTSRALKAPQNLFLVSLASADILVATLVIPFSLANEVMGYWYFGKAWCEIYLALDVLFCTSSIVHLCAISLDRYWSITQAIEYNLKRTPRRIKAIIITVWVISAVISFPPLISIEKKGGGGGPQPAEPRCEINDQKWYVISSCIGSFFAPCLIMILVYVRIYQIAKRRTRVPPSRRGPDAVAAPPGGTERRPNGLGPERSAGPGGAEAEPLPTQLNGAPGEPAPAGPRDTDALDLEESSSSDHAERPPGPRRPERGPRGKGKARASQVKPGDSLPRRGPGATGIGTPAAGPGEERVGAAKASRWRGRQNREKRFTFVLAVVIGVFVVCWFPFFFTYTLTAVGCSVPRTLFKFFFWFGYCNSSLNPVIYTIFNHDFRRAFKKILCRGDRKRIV
Description: PDSP Primary Binding target: ADRA2A - Compounds are tested at 10 uM concentration, plate are incubated at room temperature in the dark for 90 minutes. Reaction are stopped by vacuum filtration onto 0.3% polyethyleneimine soaked filter mats using Filtermate harvester. Scintilation cocktail is then melted onto microwave-dried filters on a hot plate and the radio activity is counted in Microbia counter.

For test [2], the target named is Beta-2 adrenergic receptor (Homo sapiens) (UniProt P07550).
Chain of Beta-2 adrenergic receptor (Homo sapiens) (P07550 whole entry, looked up): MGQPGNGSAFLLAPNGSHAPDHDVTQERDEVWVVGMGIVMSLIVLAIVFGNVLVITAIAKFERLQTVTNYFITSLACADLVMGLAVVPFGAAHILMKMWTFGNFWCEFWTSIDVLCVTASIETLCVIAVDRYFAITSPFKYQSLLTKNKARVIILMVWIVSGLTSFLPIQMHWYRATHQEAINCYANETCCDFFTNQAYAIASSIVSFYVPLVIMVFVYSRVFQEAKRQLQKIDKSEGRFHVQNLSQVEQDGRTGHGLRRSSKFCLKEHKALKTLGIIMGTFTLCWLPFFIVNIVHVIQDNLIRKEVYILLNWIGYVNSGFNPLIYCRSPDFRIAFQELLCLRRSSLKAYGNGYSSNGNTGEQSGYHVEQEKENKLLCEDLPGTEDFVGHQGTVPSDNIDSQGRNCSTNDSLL
Description: PDSP Primary Binding target: ADRB2 - Compounds are tested at 10 uM concentration, plate are incubated at room temperature in the dark for 90 minutes. Reaction are stopped by vacuum filtration onto 0.3% polyethyleneimine soaked filter mats using Filtermate harvester. Scintilation cocktail is then melted onto microwave-dried filters on a hot plate and the radio activity is counted in Microbia counter.
The target in test [3] is T2, Muscarinic acetylcholine receptor M1 (Homo sapiens) (UniProt P11229).
T2 sequence (whole entry): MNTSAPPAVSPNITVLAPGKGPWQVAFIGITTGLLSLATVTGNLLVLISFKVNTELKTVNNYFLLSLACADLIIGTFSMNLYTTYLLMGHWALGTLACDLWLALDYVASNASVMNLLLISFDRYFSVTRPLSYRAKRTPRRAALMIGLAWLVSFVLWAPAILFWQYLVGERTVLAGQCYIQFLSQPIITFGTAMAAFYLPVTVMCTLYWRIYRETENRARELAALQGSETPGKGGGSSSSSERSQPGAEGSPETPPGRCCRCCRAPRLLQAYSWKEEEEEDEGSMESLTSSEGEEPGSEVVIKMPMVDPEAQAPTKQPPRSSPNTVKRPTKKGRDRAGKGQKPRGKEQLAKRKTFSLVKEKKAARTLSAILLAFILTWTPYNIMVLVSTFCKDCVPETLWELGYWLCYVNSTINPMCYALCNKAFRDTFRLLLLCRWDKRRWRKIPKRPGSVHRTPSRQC
Description: PDSP Primary Binding target: CHRM1 - Compounds are tested at 10 uM concentration, plate are incubated at room temperature in the dark for 90 minutes. Reaction are stopped by vacuum filtration onto 0.3% polyethyleneimine soaked filter mats using Filtermate harvester. Scintilation cocktail is then melted onto microwave-dried filters on a hot plate and the radio activity is counted in Microbia counter.

Test [4] has as its target T3, Muscarinic acetylcholine receptor M2 (Homo sapiens) (UniProt P08172).
T3 sequence (whole entry): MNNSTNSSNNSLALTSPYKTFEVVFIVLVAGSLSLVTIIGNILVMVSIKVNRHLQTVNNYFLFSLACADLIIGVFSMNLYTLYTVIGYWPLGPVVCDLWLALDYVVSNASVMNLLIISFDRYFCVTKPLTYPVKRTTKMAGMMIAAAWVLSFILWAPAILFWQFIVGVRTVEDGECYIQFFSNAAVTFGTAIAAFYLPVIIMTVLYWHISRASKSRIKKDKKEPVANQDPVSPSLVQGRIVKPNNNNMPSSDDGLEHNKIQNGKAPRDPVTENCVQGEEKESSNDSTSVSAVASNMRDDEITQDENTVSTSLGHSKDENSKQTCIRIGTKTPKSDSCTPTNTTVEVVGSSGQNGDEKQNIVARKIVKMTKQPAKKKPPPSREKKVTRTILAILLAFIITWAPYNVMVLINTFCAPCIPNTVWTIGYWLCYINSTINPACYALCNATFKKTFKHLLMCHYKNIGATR
Description: PDSP Primary Binding target: CHRM2 - Compounds are tested at 10 uM concentration, plate are incubated at room temperature in the dark for 90 minutes. Reaction are stopped by vacuum filtration onto 0.3% polyethyleneimine soaked filter mats using Filtermate harvester. Scintilation cocktail is then melted onto microwave-dried filters on a hot plate and the radio activity is counted in Microbia counter.

Test [5] addresses T4, Muscarinic acetylcholine receptor M4 (Homo sapiens) (UniProt P08173).
T4 sequence (whole entry): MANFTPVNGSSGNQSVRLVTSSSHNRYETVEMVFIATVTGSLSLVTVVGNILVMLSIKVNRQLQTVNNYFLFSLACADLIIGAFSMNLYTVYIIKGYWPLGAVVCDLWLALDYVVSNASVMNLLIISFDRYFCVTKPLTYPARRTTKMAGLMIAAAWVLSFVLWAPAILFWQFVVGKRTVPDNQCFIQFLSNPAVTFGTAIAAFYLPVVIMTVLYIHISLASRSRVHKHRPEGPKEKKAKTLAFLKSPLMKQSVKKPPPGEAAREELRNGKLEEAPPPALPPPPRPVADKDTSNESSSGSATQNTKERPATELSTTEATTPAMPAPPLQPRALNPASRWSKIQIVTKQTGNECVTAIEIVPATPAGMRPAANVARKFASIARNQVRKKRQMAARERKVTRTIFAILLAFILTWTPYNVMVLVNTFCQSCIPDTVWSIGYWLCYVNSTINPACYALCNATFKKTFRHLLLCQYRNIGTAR
Description: PDSP Primary Binding target: CHRM4 - Compounds are tested at 10 uM concentration, plate are incubated at room temperature in the dark for 90 minutes. Reaction are stopped by vacuum filtration onto 0.3% polyethyleneimine soaked filter mats using Filtermate harvester. Scintilation cocktail is then melted onto microwave-dried filters on a hot plate and the radio activity is counted in Microbia counter.

Test [6] addresses D(3) dopamine receptor (Homo sapiens) (UniProt P35462).
Description: PDSP Primary Binding target: DRD3 - Compounds are tested at 10 uM concentration, plate are incubated at room temperature in the dark for 90 minutes. Reaction are stopped by vacuum filtration onto 0.3% polyethyleneimine soaked filter mats using Filtermate harvester. Scintilation cocktail is then melted onto microwave-dried filters on a hot plate and the radio activity is counted in Microbia counter.
Test [7] concerns the target D(1B) dopamine receptor (Homo sapiens) (UniProt P21918).
Description: PDSP Primary Binding target: DRD5 - Compounds are tested at 10 uM concentration, plate are incubated at room temperature in the dark for 90 minutes. Reaction are stopped by vacuum filtration onto 0.3% polyethyleneimine soaked filter mats using Filtermate harvester. Scintilation cocktail is then melted onto microwave-dried filters on a hot plate and the radio activity is counted in Microbia counter.
Test [8] deals with 5-hydroxytryptamine receptor 2B (Homo sapiens) (UniProt P41595).
Chain of 5-hydroxytryptamine receptor 2B (Homo sapiens) (P41595 whole entry): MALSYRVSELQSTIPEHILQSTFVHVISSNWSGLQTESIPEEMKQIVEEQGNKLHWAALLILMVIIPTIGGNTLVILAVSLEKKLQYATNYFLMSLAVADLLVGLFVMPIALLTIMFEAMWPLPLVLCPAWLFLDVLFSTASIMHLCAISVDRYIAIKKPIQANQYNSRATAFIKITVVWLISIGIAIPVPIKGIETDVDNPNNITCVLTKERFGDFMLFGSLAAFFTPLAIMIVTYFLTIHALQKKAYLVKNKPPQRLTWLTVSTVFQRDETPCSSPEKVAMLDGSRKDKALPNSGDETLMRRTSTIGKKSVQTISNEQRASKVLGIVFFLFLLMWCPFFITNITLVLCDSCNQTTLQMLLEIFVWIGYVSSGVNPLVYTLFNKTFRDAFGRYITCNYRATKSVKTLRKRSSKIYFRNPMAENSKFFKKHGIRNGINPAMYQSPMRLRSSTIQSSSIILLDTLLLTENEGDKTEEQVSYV
Description: PDSP Primary Binding target: HTR2B - Compounds are tested at 10 uM concentration, plate are incubated at room temperature in the dark for 90 minutes. Reaction are stopped by vacuum filtration onto 0.3% polyethyleneimine soaked filter mats using Filtermate harvester. Scintilation cocktail is then melted onto microwave-dried filters on a hot plate and the radio activity is counted in Microbia counter.
In test [9] the target is T5, 5-hydroxytryptamine receptor 2C (Homo sapiens) (UniProt P28335).
T5 sequence (whole entry): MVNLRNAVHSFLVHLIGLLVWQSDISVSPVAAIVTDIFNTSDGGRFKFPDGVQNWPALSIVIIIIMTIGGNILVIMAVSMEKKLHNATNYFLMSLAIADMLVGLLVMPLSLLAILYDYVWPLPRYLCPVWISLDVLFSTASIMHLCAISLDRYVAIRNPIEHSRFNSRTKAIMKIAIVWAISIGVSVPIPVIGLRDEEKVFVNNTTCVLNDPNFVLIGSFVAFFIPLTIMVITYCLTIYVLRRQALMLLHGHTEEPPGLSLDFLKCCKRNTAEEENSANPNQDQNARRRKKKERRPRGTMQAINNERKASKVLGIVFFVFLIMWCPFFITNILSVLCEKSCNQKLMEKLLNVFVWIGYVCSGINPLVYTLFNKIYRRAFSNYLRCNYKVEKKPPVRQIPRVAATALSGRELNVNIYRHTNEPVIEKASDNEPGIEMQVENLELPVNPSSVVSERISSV
Description: PDSP Primary Binding target: HTR2C - Compounds are tested at 10 uM concentration, plate are incubated at room temperature in the dark for 90 minutes. Reaction are stopped by vacuum filtration onto 0.3% polyethyleneimine soaked filter mats using Filtermate harvester. Scintilation cocktail is then melted onto microwave-dried filters on a hot plate and the radio activity is counted in Microbia counter.

The target in test [10] is 5-hydroxytryptamine receptor 6 (Homo sapiens) (UniProt P50406).
Chain of 5-hydroxytryptamine receptor 6 (Homo sapiens) (P50406 whole entry): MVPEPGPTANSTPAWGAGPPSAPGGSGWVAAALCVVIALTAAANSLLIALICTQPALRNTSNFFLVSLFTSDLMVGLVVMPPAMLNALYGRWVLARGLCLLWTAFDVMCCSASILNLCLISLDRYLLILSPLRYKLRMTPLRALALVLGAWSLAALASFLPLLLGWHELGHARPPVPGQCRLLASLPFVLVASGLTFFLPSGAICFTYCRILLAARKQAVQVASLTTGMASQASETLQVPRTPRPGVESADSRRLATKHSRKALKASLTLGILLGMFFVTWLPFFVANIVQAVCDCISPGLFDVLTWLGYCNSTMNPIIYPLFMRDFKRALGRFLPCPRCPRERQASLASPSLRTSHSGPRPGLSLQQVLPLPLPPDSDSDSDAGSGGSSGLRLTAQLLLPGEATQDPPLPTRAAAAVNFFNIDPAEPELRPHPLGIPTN
Description: PDSP Primary Binding target: HTR6 - Compounds are tested at 10 uM concentration, plate are incubated at room temperature in the dark for 90 minutes. Reaction are stopped by vacuum filtration onto 0.3% polyethyleneimine soaked filter mats using Filtermate harvester. Scintilation cocktail is then melted onto microwave-dried filters on a hot plate and the radio activity is counted in Microbia counter.
The target of test [11] is 5-hydroxytryptamine receptor 7 (Homo sapiens) (UniProt P34969).
Chain of 5-hydroxytryptamine receptor 7 (Homo sapiens) (P34969 whole entry): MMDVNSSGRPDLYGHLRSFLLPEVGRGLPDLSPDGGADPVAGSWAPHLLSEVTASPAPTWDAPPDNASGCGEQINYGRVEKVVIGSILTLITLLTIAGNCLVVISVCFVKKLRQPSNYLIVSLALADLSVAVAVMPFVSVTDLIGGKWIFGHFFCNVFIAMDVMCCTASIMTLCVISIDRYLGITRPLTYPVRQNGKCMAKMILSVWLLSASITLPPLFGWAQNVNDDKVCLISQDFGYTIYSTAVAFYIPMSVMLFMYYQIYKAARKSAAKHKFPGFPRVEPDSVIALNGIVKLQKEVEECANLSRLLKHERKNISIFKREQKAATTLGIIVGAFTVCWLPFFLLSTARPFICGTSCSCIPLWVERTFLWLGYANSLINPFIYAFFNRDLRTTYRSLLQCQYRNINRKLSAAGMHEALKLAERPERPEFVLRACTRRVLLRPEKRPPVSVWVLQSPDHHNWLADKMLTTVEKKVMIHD
Description: PDSP Primary Binding target: HTR7 - Compounds are tested at 10 uM concentration, plate are incubated at room temperature in the dark for 90 minutes. Reaction are stopped by vacuum filtration onto 0.3% polyethyleneimine soaked filter mats using Filtermate harvester. Scintilation cocktail is then melted onto microwave-dried filters on a hot plate and the radio activity is counted in Microbia counter.
Test [12] addresses Delta-type opioid receptor (Homo sapiens) (UniProt P41143).
Description: PDSP Primary Binding target: OPRD1 - Compounds are tested at 10 uM concentration, plate are incubated at room temperature in the dark for 90 minutes. Reaction are stopped by vacuum filtration onto 0.3% polyethyleneimine soaked filter mats using Filtermate harvester. Scintilation cocktail is then melted onto microwave-dried filters on a hot plate and the radio activity is counted in Microbia counter.
In test [13] the target is Kappa-type opioid receptor (Homo sapiens) (UniProt P41145).
Chain of Kappa-type opioid receptor (Homo sapiens) (P41145 whole entry): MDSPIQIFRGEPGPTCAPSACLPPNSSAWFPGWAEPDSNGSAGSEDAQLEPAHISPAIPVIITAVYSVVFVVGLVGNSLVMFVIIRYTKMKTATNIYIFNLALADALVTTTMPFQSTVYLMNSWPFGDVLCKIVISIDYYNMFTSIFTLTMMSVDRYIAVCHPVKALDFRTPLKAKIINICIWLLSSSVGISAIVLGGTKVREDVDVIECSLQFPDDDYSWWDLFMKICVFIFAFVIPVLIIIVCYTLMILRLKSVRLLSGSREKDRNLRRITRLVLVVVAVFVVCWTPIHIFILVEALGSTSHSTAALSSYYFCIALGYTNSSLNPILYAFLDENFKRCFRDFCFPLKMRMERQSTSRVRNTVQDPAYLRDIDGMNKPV
Description: PDSP Primary Binding target: OPRK1 - Compounds are tested at 10 uM concentration, plate are incubated at room temperature in the dark for 90 minutes. Reaction are stopped by vacuum filtration onto 0.3% polyethyleneimine soaked filter mats using Filtermate harvester. Scintilation cocktail is then melted onto microwave-dried filters on a hot plate and the radio activity is counted in Microbia counter.
In test [14] the target is Sigma non-opioid intracellular receptor 1 (Homo sapiens) (UniProt Q99720).
Chain of Sigma non-opioid intracellular receptor 1 (Homo sapiens) (Q99720 whole entry): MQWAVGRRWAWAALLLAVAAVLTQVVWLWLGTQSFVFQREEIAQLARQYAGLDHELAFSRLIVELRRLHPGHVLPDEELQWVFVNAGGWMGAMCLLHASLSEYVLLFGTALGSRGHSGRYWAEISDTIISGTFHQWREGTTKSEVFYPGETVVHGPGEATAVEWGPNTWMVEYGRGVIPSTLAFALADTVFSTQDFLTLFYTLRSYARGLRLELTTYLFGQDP
Description: PDSP Primary Binding target: SIGMAR1 - Compounds are tested at 10 uM concentration, plate are incubated at room temperature in the dark for 90 minutes. Reaction are stopped by vacuum filtration onto 0.3% polyethyleneimine soaked filter mats using Filtermate harvester. Scintilation cocktail is then melted onto microwave-dried filters on a hot plate and the radio activity is counted in Microbia counter.

Our source for the inhibition values is ChEMBL document CHEMBL5442219.

Chain of Delta-type opioid receptor (Homo sapiens) (P41143 whole entry): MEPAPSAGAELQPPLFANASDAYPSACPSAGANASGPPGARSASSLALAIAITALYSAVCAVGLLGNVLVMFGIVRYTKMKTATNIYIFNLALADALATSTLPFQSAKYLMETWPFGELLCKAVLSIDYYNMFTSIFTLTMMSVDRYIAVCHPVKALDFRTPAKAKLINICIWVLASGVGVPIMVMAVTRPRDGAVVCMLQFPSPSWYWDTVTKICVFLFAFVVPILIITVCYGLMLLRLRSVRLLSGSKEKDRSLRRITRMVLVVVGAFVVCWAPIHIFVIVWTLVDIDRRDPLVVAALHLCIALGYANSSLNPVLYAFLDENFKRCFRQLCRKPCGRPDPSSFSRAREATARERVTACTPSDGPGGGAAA
Chain of D(1B) dopamine receptor (Homo sapiens) (P21918 whole entry): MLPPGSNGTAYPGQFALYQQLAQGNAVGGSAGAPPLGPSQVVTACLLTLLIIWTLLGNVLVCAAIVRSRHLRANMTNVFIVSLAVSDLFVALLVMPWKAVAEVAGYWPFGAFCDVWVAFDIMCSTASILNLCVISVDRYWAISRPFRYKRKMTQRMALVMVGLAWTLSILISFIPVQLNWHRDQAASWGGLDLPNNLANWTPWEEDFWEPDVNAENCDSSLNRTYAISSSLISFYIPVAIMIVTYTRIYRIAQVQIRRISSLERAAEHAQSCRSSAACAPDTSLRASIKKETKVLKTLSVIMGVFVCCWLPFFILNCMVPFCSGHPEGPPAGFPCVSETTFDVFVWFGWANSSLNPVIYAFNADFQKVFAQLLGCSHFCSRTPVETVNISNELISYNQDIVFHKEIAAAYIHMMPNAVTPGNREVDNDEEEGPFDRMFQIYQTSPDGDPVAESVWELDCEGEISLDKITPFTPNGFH
Chain of D(3) dopamine receptor (Homo sapiens) (P35462 whole entry): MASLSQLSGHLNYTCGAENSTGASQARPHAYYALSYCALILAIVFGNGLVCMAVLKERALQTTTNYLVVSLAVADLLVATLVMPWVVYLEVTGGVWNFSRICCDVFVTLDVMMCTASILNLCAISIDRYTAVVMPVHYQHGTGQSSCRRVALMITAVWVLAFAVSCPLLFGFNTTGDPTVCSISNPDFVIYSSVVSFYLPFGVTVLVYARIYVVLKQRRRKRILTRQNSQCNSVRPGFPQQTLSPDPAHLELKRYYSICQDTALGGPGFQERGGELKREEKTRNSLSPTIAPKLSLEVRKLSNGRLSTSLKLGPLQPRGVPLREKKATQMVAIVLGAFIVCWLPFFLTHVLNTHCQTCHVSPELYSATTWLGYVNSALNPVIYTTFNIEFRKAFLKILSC

For orientation: inhibition means the change of the read-out against control, counted positive when it falls. Take `N#Cc1ccc2[nH]cc(CCCCN3CCN(c4ccc5oc(C(N)=O)cc5c4)CC3)c2c1`: the inhibition in test [1] is 70%; in [2], 56.2%; in test [3] it was 1.49%; in test [4] it was -4.48%; in [5] it was 5.32%; in test [6], 95.2%. The inhibition was 36.9% in test [7]; 101% in test [8]; 43.3% in test [9]; 30.3% in test [10]; 82.4% in test [11]; 35.4% in test [12]. Besides, the inhibition in [13] is 30.6%; in test [14] it was 99.1%.
As to `CCCCCNC(=N)N/N=C/c1c[nH]c2ccc(OC)cc12`, the inhibition in test [1] is 77.7%; in test [2] it was 54.7%; in test [3] it was 19.6%; in [4], 38.2%; in [5], 0.53%; in test [6] it was 70%. The inhibition in test [7] was 54.4%; in test [8], 100%; in [9], 92.8%; in test [10], 89%; in test [11] it was 93.6%; in [12] it was 12.6%. The inhibition in [13] is 35.1%; in [14], 96.6%.
As for `NC[C@@H]1O[C@H](C23CC4CC(CC(C4)C2)C3)Cc2c1ccc(O)c2O`, the inhibition in [1] was 85.1%; in test [2], 29.6%; in [3] it was -5.8%; in [4], -9.03%; in [5], 8.08%; in [6], 81%. Further, the inhibition in test [7] is 82.7%; in test [8], 48.1%; in test [9], 31.6%; in [10] it was 19.1%; in test [11] it was 25.1%; in test [12], 3.82%. Further, the inhibition in [13] was 12.2%; in test [14], 48.5%.
As for `O=S1(=O)c2cccc3cccc(c23)N1CCCN1CCN(c2ccc(F)cc2)CC1`, the inhibition is 96.8% in test [1]; 21.3% in test [2]; 12.9% in test [3]; 10.3% in test [4]; 1.66% in test [5]; 58.5% in [6]. For the same compound, the inhibition in test [7] was -1.71%; in test [8], 93.9%; in test [9] it was 97.4%; in [10] it was 52.9%; in test [11], 90.5%; in test [12], 8.66%. The values for the inhibition in test [13] and in test [14] were 56% and 89.3%, respectively.
On to `COc1cc(-n2cnc3cc(-c4ccc(Cl)cc4)sc3c2=O)ccc1OCCN1CCCC1`, for which the inhibition in test [1] was 70.6%; in test [2] it was 17.8%; in test [3] it was 84.1%; in test [4], 71.5%; in [5], 73.8%; in test [6], 68.5%. Further, the inhibition is 27.2% in test [7]; 82.7% in [8]; 79.9% in test [9]; -7.71% in test [10]; 16.4% in test [11]; 28.9% in [12]. The inhibition in test [13] was 33.2%; in [14], 98.9%.
For `COc1cccc([C@@H](C)NCCCc2ccccc2Cl)c1`, the inhibition was 45.1% in [1]; -2.01% in [2]; -0.51% in test [3]; 7% in test [4]; 27.2% in test [5]; 85% in [6]. Further, the inhibition was 8.31% in test [7]; 96.6% in [8]; 91.8% in [9]; 84.3% in test [10]; 48.8% in [11]; 11.8% in test [12]. Moreover, the inhibition in test [13] is 65.3%; in [14], 97.4%.
Take `COc1ccc(NS(=O)(=O)c2sc3ccc(Cl)cc3c2C)cc1N1CCNCC1`: the inhibition in test [1] is 75.7%; in test [2], 32.3%; in test [3], -7.39%; in [4], 17%; in test [5], 5.58%; in [6] it was 91%. The inhibition in [7] is 22.4%; in [8] it was 71.2%; in test [9], 51.7%; in [10] it was 87.3%; in [11], 38.3%; in test [12], 29.8%. Further, the inhibition in [13] is 75.5%; in test [14], 83.6%.
Turning to `O=C(Cc1ccc(Cl)c(Cl)c1)N1CCCC[C@H]1CN1CCCC1`, the inhibition is 30.3% in test [1]; 7.92% in [2]; 9.74% in [3]; 12% in [4]; 16.7% in [5]; 18.5% in test [6]. Moreover, the inhibition was -9.99% in [7]; 35.7% in [8]; -3.64% in test [9]; -5.65% in test [10]; 31.1% in test [11]; 17.6% in test [12]. Moreover, the inhibition in [13] was 99.7%; in test [14], 94.7%.
In the case of `Cc1nc2sccn2c(=O)c1CCN1CCC(=C(c2ccc(F)cc2)c2ccc(F)cc2)CC1`, the inhibition in test [1] was 98.8%; in test [2], 1.44%; in test [3], 18.5%; in [4] it was 34.1%; in test [5], 1.18%; in test [6], 94.6%. Moreover, the inhibition in test [7] is 74.1%; in test [8] it was 89.4%; in [9] it was 97.8%; in test [10], 98.1%; in [11], 90.2%; in test [12], 17.7%. Besides, the values for the inhibition in test [13] and in test [14] were 65.8% and 87.3%, respectively.
